Results from patent publication US6569902B2, “Nitrone inhibition of cancer development” (Oklahoma Medical Research Foundation, priority 2000, dated 2003).
Like-named read-outs stand apart in the source and are kept apart here.

Experiments:
rats fed the CDAA diet = details: cited from earlier work
[1] = test system: GST-P-positive lesions in livers of male Wistar rats fed the CDAA diet; assay: Example 2: numbers and sizes of GST-P-positive liver lesions, CDAA diet for 16 weeks; type: in vivo, rat; details: for effect on the number or sizes of the GST-P-positive lesions: CDAA diet
Experimental: Animals. A total of 110 male Wistar rats were obtained at 5 weeks of age from Charles River Japan, Inc., Atsugi, Kanagawa, Japan. Experimentation began after a 1-week acclimation on a basal diet (CE-2 diet, Clea Japan, Meguro, Tokyo, Japan). Rats were housed 5 each in plastic cages with white flake bedding (Kansai Animal Corp., City of Kyoto, Kyoto, Japan) in a standard atmosphere (temperature, 25±3° C.; relative humidity, 55±8%; ventilation, 10-15/hour; and a 12-hour dark/light cycle). Free access to food and tap water was allowed throughout the acclimation and experimental periods.
Diets and chemicals. The CDAA diet and its control, a choline-supplemented, L-amino acid-defined (CSAA) diet (Nakae et al. 1992; and Nakae et al. 1990) were obtained from Dyets, Inc., Bethlehem, Pa. […] 2-Sulfoxy-PBN (2-SPBN) was purchased from Aldrich Chemical Co. (Milwaukee, Wis.).
(§1) Animal experiment. After acclimation, rats were divided equally into 22 groups consisting of 5 animals each. Animals in group 1 received the CDAA diet alone. […] Groups 5-7, 8-10, 11-13 and 14-16 received the CDAA diet containing the low, middle, and high doses of 4-OHPBN, 3-OHPBN, 2-OHPBN and 2-SPBN, respectively. Group 17 received the CSAA diet alone. […] All animals were sacrificed by exsanguination under light ether anesthesia 16 weeks after commencement, and the livers excised. Slices 5-mm-thick were taken from the left lateral, median and right lateral lobes of the livers, fixed in 10% neutrally-buffered formalin for 24 hours and then embedded in paraffin. Five serial 4-μm-thick sections were prepared from each fixed liver slice and used for histological and immunohistochemical assessment as described below. The remaining portions of the livers were immediately frozen under liquid nitrogen and stored at −80° C. until use.
(§2) Histological and immunohistochemical assessments. Histological assessment was performed using sections routinely stained with hematoxylin/eosin and Masson's trichrome procedures. Gradation of fibrosis was quantitatively evaluated in groups 1, 4, 7, 10, 13, 16 and 17 by calculating the percent area occupied by collagen fiber stained blue by Masson's trichrome method using an IPAP image analyzing system (Sumika Technoservice Corp., City of Osaka, Osaka, Japan). GST-P-positive lesions were visualized immunohistochemically. Lesions consisting of more than 6 cells were quantified using the IPAP system as described elsewhere (Kishida et al. 2000). The amount of apoptosis and the cellular proliferative activity were determined in groups 1, 4, 7, 10, 13, 16 and 17, using the double staining techniques by combination of the GST-P immunohistochemistry as above with the in situ terminal deoxynucleotidyl transferase-mediated dUTP-biotin nick end-labeling method (Gold et al. 1994) and the enhanced polymer one-step staining method for proliferating cell nuclear antigen (Tsutsumi et al. 1995), respectively. Numbers of apoptotic and proliferating hepatocytes among the 1000-5000 hepatocytes in GST-P-positive lesions and 5000 hepatocytes in surrounding tissue were counted under light microscopy to obtain percentages that are hereafter referred as apoptotic and proliferative indices, respectively.
(§3) Statistics. Inter-group differences in quantitative data for multiple groups were recognized to be significant, when p values smaller than 0.05 were obtained by the Dunnett multiple comparison test employed after one-way analysis of variance to determine the variation among the group means followed by the Bartlett's test to determine the homogeniety of variance.

[2] = test system: livers of male Wistar rats fed the CDAA diet; assay: Example 2: oxidative hepatocyte injuries (8-OHdG, TBARS); type: in vivo, rat; details: for nuclear DNA 8-OHdG content increased by CDAA diet feeding: all doses, CDAA diet 16 weeks
Text: as §1
Determination of oxidative hepatocyte injuries. Levels of oxidative damage to the hepatocytes were determined on frozen liver samples. Oxidative damage to nuclear DNA was assessed as previously described, using the amount of 8-hydroxydeoxyguanosine (8-OHdG) to 10^6 deoxyguanosine (dG) ratio as a parameter (Nakae et al. 1995). Oxidative injury to extra-nuclear components was assessed as described elsewhere, by determining picomole malondialdehyde equivalent (MDA eq.) levels of 2-thiobarbituric acid-reacting substances (TBARS) per milligram protein (Nakae et al. 1990).
as §3

[3] = test system: hepatocytes of male Wistar rats fed the CDAA diet; assay: Example 2: apoptotic and proliferative indices in GST-P-positive lesions and surrounding tissue; type: in vivo, rat; details: high dose 0.090%
Text: as §1, §2, §3

[4] = test system: livers of male Wistar rats fed the CDAA diet; assay: Example 2: histological liver injury (fibrosis, fatty liver); type: in vivo, rat; details: high dose 0.090%, CDAA diet 16 weeks
Text: as §1, §2, §3

[5] = test system: rat liver microsome peroxidation; details: read-out: IC50, inhibition of rat liver microsome peroxidation; cited from earlier work

Structure (SMILES): CCCCCCCCCCCCCCCCCCOC1=C(O)[C@@H]([C@@H](O)CO)OC1=O [2-O-octadecylascorbic acid]
- inhibition of rat hepatocarcinogenesis (rats fed the CDAA diet; chronic feeding in the CDAA diet (Mizumoto et al. 1994)): inhibits rat hepatocarcinogenesis by chronic feeding in the CDAA diet greater than its hydrophilic parent, L-ascorbic acid

Structure (SMILES): CC(C)(C)[N+]([O-])=Cc1ccccc1O [2-OHPBN, 2-hydroxyphenyl N-tert-butylnitone]
- effect on the number or sizes of the GST-P-positive lesions [1]: Neither 2-OHPBN nor 2-SPBN had any affect
- nuclear DNA 8-OHdG content increased by CDAA diet feeding [2]: Neither 2-OHPBN nor 2-SPBN decreased
- TBARS level enhanced by CDAA feeding ([2]; all three doses): Neither 2-OHPBN nor 2-SPBN affected
- effect on apoptotic indices [3]: Neither 2-OHPBN nor 2-SPBN altered
- grade of fibrosis versus group 1 [4]: no affect

Structure (SMILES): CC(C)(C)[N+]([O-])=Cc1ccccc1S(=O)(=O)O [2-SPBN, 2-sulfoxyphenyl N-tert-butylnitone]
- effect on the number or sizes of the GST-P-positive lesions [1]: Neither 2-OHPBN nor 2-SPBN had any affect
- nuclear DNA 8-OHdG content increased by CDAA diet feeding [2]: Neither 2-OHPBN nor 2-SPBN decreased
- TBARS level enhanced by CDAA feeding ([2]; all three doses): Neither 2-OHPBN nor 2-SPBN affected
- effect on apoptotic indices [3]: Neither 2-OHPBN nor 2-SPBN altered
- grade of fibrosis versus group 1 [4]: no affect

Structure (SMILES): CC(C)(C)[N+]([O-])=Cc1cccc(O)c1 [3-OHPBN, 3-hydroxyphenyl N-tert-butylnitrone]
- sizes of GST-P-positive lesions, % of the group 1 value ([1]; high dose 0.090% in CDAA diet): 9%
- nuclear DNA 8-OHdG content increased by CDAA diet feeding [2]: significantly inhibited
- TBARS level enhanced by CDAA feeding ([2]; high dose 0.090% only): significantly inhibited
- apoptotic index in the surrounding tissue, % of the group 1 value [3]: about 40%
- grade of fibrosis versus group 1 [4]: significantly lower

Structure (SMILES): CC(C)(C)[N+]([O-])=Cc1ccc(O)cc1 [4-OHPBN, 4-hydroxyphenyl N-tert-butylnitrone]
- sizes of GST-P-positive lesions, % of the group 1 value ([1]; high dose 0.090% in CDAA diet): 18%
- sizes of GST-P-positive lesions, % of the group 1 value ([1]; low dose 0.009% in CDAA diet): 24%
- sizes of GST-P-positive lesions, % of the group 1 value ([1]; middle dose 0.045% in CDAA diet): 19%
- nuclear DNA 8-OHdG content increased by CDAA diet feeding [2]: significantly inhibited
- TBARS level enhanced by CDAA feeding ([2]; all three doses): significantly exerted an effect
- apoptotic index in the surrounding tissue, % of the group 1 value [3]: about 40%
- proliferative index in the lesions, % of the group 1 value [3]: approximately 31%
- proliferative index in the surrounding tissue, % of the group 1 value [3]: about 49%
- grade of fibrosis versus group 1 [4]: significantly lower

Structure (SMILES): CC(=O)Oc1ccccc1C(=O)O [Acetylsalicylic acid]
- effect on nodule size, nodule number and 8-OHdG content (rats fed the CDAA diet; not nearly as potent as PBN): some effect

Structure (SMILES): Cc1c(C)c2c(c(C)c1O)CC[C@@](C)(CCC[C@H](C)CCC[C@H](C)CCCC(C)C)O2 [Alpha tocopherol]
- effect on any of the parameters (rats fed the CDAA diet; rat, in vivo): very little effect

Structure (SMILES): Cc1cc(C(C)(C)C)c(O)c(C(C)(C)C)c1 [BHT]
- IC50 [5]: 6 µM

Structure (SMILES): O=C(CBr)c1ccc(Br)cc1 [BPB, p-bromophenocybromide]
- activity in suppressing the size of the nodules (rats fed the CDAA diet; rat, in vivo): little activity

Structure (SMILES): CCCCCCCCCCCCCCCCCCOC1=C(O)C([C@@H](O)CO)OC1=O (stereo partly shown) [CV3611]
- lowering of nodule size (rats fed the CDAA diet; 0.05% level): 44%

Structure (SMILES): c1ccc(Nc2ccc(Nc3ccccc3)cc2)cc1 [N,N′-diphenyl-p-phenylenediamine]
- effect on sizes and numbers of GST-P-positive lesions (rats fed the CDAA diet; livers of rats fed the CDAA diet (Nakae et al. 1994)): reduces the sizes of GST-P-positive lesions without affecting their numbers

Structure (SMILES): CC(Cc1ccc(O)c(O)c1)C(C)Cc1ccc(O)c(O)c1 (stereo not shown) [NGDA, nordihydroguaiaric acid]
- lowering of nodule size (rats fed the CDAA diet; 0.1% level): 39%

Structure (SMILES): Cc1c(C)c2c(c(C)c1O)CCC(C)(C(=O)O)O2 (stereo not shown) [Trolox]
- effect on any of the parameters (rats fed the CDAA diet; rat, in vivo): very little effect
- IC50 [5]: 40 µM
